The results in this text go back to the supplement of paper PMC12137928.

The test system of the assay is HCT116. The note with it: 72 h. An outline of the steps: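 Four-parameter Hill fits gave IC50 and maximal efficacy. The data were CellTiter-Glo luminescence readings in HCT116 cells, normalized so that vehicle was 0% and positive control was -100%, with pattern correction afterwards.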

Where a name gives a salt, the structure may show the parent alone.

In the case of `C#C[C@]1(O)CC[C@H]2[C@@H]3CCC4=CC(=O)CC[C@@H]4[C@H]3CC[C@@]21C` [Norethindrone], the IC50 cell viability (ICRF193 0 nM) was above 45.8 µM and the IC50 cell viability (ICRF193 200 nM) was above 45.8 µM.
Consider `CCCCc1ncc(/C=C(\Cc2cccs2)C(=O)O)n1Cc1ccc(C(=O)O)cc1` [Eprosartan mesylate], for which the IC50 cell viability was above 45.8 µM (ICRF193 0 nM) and above 45.8 µM (ICRF193 200 nM).
For `CC#C[C@]1(O)CC[C@H]2[C@@H]3CCC4=CC(=O)CCC4=C3[C@@H](c3ccc(N(C)C)cc3)C[C@@]21C` [Mifepristone], the IC50 cell viability (ICRF193 0 nM) was above 45.8 µM and the IC50 cell viability (ICRF193 200 nM) is above 45.8 µM.
Turning to `CC(C)=CCC1C(=O)N(c2ccccc2)N(c2ccccc2)C1=O` [Feprazone], the IC50 cell viability by setting is: (ICRF193 0 nM) above 45.8 µM; (ICRF193 200 nM) above 45.8 µM.
Regarding `Cc1nnc(C(=O)NC(C)(C)c2nc(C(=O)NCc3ccc(F)cc3)c(O)c(=O)n2C)o1` [Raltegravir], the IC50 cell viability runs as follows: (ICRF193 0 nM) above 45.8 µM; (ICRF193 200 nM) above 45.8 µM.
As to `CCCCOC(=O)c1ccc(N)cc1` [Butyl 4-aminobenzoate], the IC50 cell viability by setting is: (ICRF193 0 nM) above 45.8 µM; (ICRF193 200 nM) above 45.8 µM.
`CC1=NN(c2ccccc2)C(=O)C1` [Edaravone]: the IC50 cell viability is above 45.8 µM (ICRF193 0 nM) and above 45.8 µM (ICRF193 200 nM).
Consider `NS(=O)(=O)c1cc2c(cc1C(F)(F)F)NCNS2(=O)=O` [Hydroflumethiazide], for which the IC50 cell viability (ICRF193 0 nM) was above 45.8 µM and the IC50 cell viability (ICRF193 200 nM) is above 45.8 µM.
For the compound `CS(=O)(=O)c1ccc([C@@H](O)[C@@H](CO)NC(=O)C(Cl)Cl)cc1` [Thiamphenicol], the IC50 cell viability reads like this: (ICRF193 0 nM) above 45.8 µM; (ICRF193 200 nM) above 45.8 µM.
As to `O=C(O)/C=C/c1ccc(Cn2ccnc2)cc1` [Ozagrel hydrochloride], the IC50 cell viability reads like this: (ICRF193 0 nM) above 45.8 µM; (ICRF193 200 nM) above 45.8 µM.
`CCCC1O[C@@H]2C[C@H]3[C@@H]4CCC5=CC(=O)C=C[C@]5(C)[C@H]4[C@@H](O)C[C@]3(C)[C@]2(C(=O)CO)O1` (some centres undefined) [Budesonide]: the IC50 cell viability (ICRF193 0 nM) is above 45.8 µM and the IC50 cell viability (ICRF193 200 nM) was above 45.8 µM.
Take `FC(F)OC(Cl)C(F)(F)F` (centres undefined) [Isoflurane]: the IC50 cell viability (ICRF193 0 nM) was above 45.8 µM and the IC50 cell viability (ICRF193 200 nM) is above 45.8 µM.
Take `N.N.O=C([O-])C[O-].[Pt+2]` [Nedaplatin]: the IC50 cell viability by setting is: (ICRF193 0 nM) above 45.8 µM; (ICRF193 200 nM) above 45.8 µM.
In the case of `CC(=O)O[C@H]1Cc2ccccc2N(C(N)=O)c2ccccc21` [Eslicarbazepine (acetate)], the IC50 cell viability by setting is: (ICRF193 0 nM) above 45.8 µM; (ICRF193 200 nM) above 45.8 µM.
`C[C@H](N)[C@H](O)c1cccc(O)c1` [Metaraminol bitartrate]: the IC50 cell viability is above 45.8 µM (ICRF193 0 nM) and above 45.8 µM (ICRF193 200 nM).
Turning to `CC(=O)OCC(=O)[C@@]12N=C(C)O[C@@H]1C[C@H]1[C@@H]3CCC4=CC(=O)C=C[C@]4(C)[C@H]3[C@@H](O)C[C@@]12C` [Deflazacort], the IC50 cell viability reads like this: (ICRF193 0 nM) above 45.8 µM; (ICRF193 200 nM) above 45.8 µM.
As for `O=C(CCC1CCN(Cc2ccccc2)CC1)c1ccc2c(c1)NCCCC2` [Zanapezil fumerate], the IC50 cell viability (ICRF193 0 nM) was above 45.8 µM and the IC50 cell viability (ICRF193 200 nM) is above 45.8 µM.
`O=C(O)c1nc(=O)[nH]c(=O)[nH]1` [Oteracil]: the IC50 cell viability is, setting by setting: (ICRF193 0 nM) above 45.8 µM; (ICRF193 200 nM) above 45.8 µM.
As for `CN1CCCN=C1/C=C/c1cccc(O)c1` [OXANTEL PAMOATE], the IC50 cell viability was above 45.8 µM (ICRF193 0 nM) and above 45.8 µM (ICRF193 200 nM).
Regarding `O=P1(N(CCCl)CCCl)NCCCO1` (centres undefined) [Cyclophosphamide], the IC50 cell viability reads like this: (ICRF193 0 nM) above 45.8 µM; (ICRF193 200 nM) above 45.8 µM.
As for `CCC(C(=O)OCCN1CCOC(c2ccccc2)C1C)c1ccccc1` (centres undefined) [Fenbutrazate], the IC50 cell viability is above 45.8 µM (ICRF193 0 nM) and above 45.8 µM (ICRF193 200 nM).
`CCC(Oc1ccccc1)C(=O)N[C@@H]1C(=O)N2[C@@H]1SC(C)(C)[C@@H]2C(=O)O` (some centres undefined) [Propicillin] displayed an IC50 cell viability (ICRF193 0 nM) above 45.8 µM and an IC50 cell viability (ICRF193 200 nM) above 45.8 µM.
For the compound `NCC(=O)CCC(=O)O` [Aminolevulinic acid hydrochloride], the IC50 cell viability reads like this: (ICRF193 0 nM) above 45.8 µM; (ICRF193 200 nM) above 45.8 µM.
On to `CCNC(=O)CCC/C=C\C[C@@H]1[C@@H](/C=C/[C@@H](O)CCc2ccccc2)[C@H](O)C[C@@H]1O` [Bimatoprost], for which the IC50 cell viability by setting is: (ICRF193 0 nM) above 45.8 µM; (ICRF193 200 nM) above 45.8 µM.
On to `OC(CCN1CCCCC1)(c1ccccc1)C1CC2C=CC1C2` (centres undefined) [Biperiden], for which the IC50 cell viability is above 45.8 µM (ICRF193 0 nM) and above 45.8 µM (ICRF193 200 nM).
As for `CC1OC2(CS1)CN1CCC2CC1` (centres undefined) [Cevimeline hydrochloride], the IC50 cell viability is above 45.8 µM (ICRF193 0 nM) and above 45.8 µM (ICRF193 200 nM).
`Cc1cc(C(C)(C)C)cc(C)c1CC1=NCCN1` [Xylometazoline hydrochloride] showed an IC50 cell viability (ICRF193 0 nM) above 45.8 µM and an IC50 cell viability (ICRF193 200 nM) above 45.8 µM.
Consider `CCCN(CC)C(CC)C(=O)Nc1c(C)cccc1C` (centres undefined) [Etidocaine], for which the IC50 cell viability reads like this: (ICRF193 0 nM) above 45.8 µM; (ICRF193 200 nM) above 45.8 µM.
Regarding `CCC(C)C(C)(COC(N)=O)COC(N)=O` (centres undefined) [Mebutamate], the IC50 cell viability reads like this: (ICRF193 0 nM) above 45.8 µM; (ICRF193 200 nM) above 45.8 µM.
For `O=C(c1ccccc1)c1ccc2n1CCC2C(=O)O` (centres undefined) [Ketorolac], the IC50 cell viability (ICRF193 0 nM) is above 45.8 µM and the IC50 cell viability (ICRF193 200 nM) is above 45.8 µM.
`CCn1cc(C(=O)O)c(=O)c2ccc(C)nc21` [Nalidixic acid]: the IC50 cell viability was above 45.8 µM (ICRF193 0 nM) and above 45.8 µM (ICRF193 200 nM).
With `NC(=O)OCCCc1ccccc1` [Phenprobamate], the IC50 cell viability reads like this: (ICRF193 0 nM) above 45.8 µM; (ICRF193 200 nM) above 45.8 µM.
In the case of `O=C(NCC(O)CO)c1c(I)c(C(=O)NCC(O)CO)c(I)c(N(CCO)C(=O)CO)c1I` (centres undefined) [Ioversol], the IC50 cell viability is above 45.8 µM (ICRF193 0 nM) and above 45.8 µM (ICRF193 200 nM).
With `COc1cc(N)c(Cl)cc1C(=O)NC1CCN(Cc2ccccc2)CC1` [Clebopride maleate], the IC50 cell viability by setting is: (ICRF193 0 nM) above 45.8 µM; (ICRF193 200 nM) above 45.8 µM.
Take `CCC[C@@H]1CC(=O)N([C@@H](CC)C(N)=O)C1` [Brivaracetam]: the IC50 cell viability is, setting by setting: (ICRF193 0 nM) above 45.8 µM; (ICRF193 200 nM) above 45.8 µM.
Regarding `c1ccc2scnc2c1` [Benzothiazole], the IC50 cell viability (ICRF193 0 nM) is above 45.8 µM and the IC50 cell viability (ICRF193 200 nM) was above 45.8 µM.
For the compound `CN1CCN(C2=Nc3ccccc3Cc3ccccc32)CC1` [Perlapine], the IC50 cell viability by setting is: (ICRF193 0 nM) above 45.8 µM; (ICRF193 200 nM) above 45.8 µM.
`CC(C)(C)NCC(O)c1cc(O)cc(O)c1` (centres undefined) [Terbutaline hemisulfate]: the IC50 cell viability runs as follows: (ICRF193 0 nM) above 45.8 µM; (ICRF193 200 nM) above 45.8 µM.
On to `C[C@H](N)C(=O)N[C@@H](C)C(=O)N[C@H]1[C@@H]2CN(c3nc4c(cc3F)c(=O)c(C(=O)O)cn4-c3ccc(F)cc3F)C[C@@H]21` [Alatrofloxacin mesylate], for which the IC50 cell viability runs as follows: (ICRF193 0 nM) above 45.8 µM; (ICRF193 200 nM) above 45.8 µM.
`CCCCNc1ccc(C(=O)OCCN(C)C)cc1` [Tetracaine hydrochloride]: the IC50 cell viability reads like this: (ICRF193 0 nM) above 45.8 µM; (ICRF193 200 nM) above 45.8 µM.
Regarding `Cc1cc2c(s1)Nc1ccccc1N=C2N1CCN(C)CC1` [Olanzapine], the IC50 cell viability is, setting by setting: (ICRF193 0 nM) above 45.8 µM; (ICRF193 200 nM) above 45.8 µM.
On to `Cc1cccc(N(C)C(=S)Oc2ccc3c(c2)CCC3)c1` [Tolindate], for which the IC50 cell viability runs as follows: (ICRF193 0 nM) above 45.8 µM; (ICRF193 200 nM) above 45.8 µM.
For the compound `O=[N+]([O-])c1ccccc1` [Nitrobenzene], the IC50 cell viability reads like this: (ICRF193 0 nM) above 45.8 µM; (ICRF193 200 nM) above 45.8 µM.
On to `NC(=S)NS(=O)(=O)c1ccc(N)cc1` [Sulfathiourea], for which the IC50 cell viability reads like this: (ICRF193 0 nM) above 45.8 µM; (ICRF193 200 nM) above 45.8 µM.
Take `C[N+]1(C)CCN(CC(O)(c2ccccc2)C2CCCCC2)CC1` (centres undefined) [Hexocyclium]: the IC50 cell viability (ICRF193 0 nM) was above 45.8 µM and the IC50 cell viability (ICRF193 200 nM) was above 45.8 µM.
Turning to `CCOC(=O)c1ccccc1C(=O)OCC` [Diethyl phthalate], the IC50 cell viability by setting is: (ICRF193 0 nM) above 45.8 µM; (ICRF193 200 nM) above 45.8 µM.
With `Nc1ccn([C@@H]2CS[C@H](CO)O2)c(=O)n1` [Lamivudine], the IC50 cell viability is, setting by setting: (ICRF193 0 nM) above 45.8 µM; (ICRF193 200 nM) above 45.8 µM.
For the compound `CCN(CC)CC#CCOC(=O)C(O)(c1ccccc1)C1CCCCC1` (centres undefined) [Oxybutynin chloride], the IC50 cell viability is, setting by setting: (ICRF193 0 nM) above 45.8 µM; (ICRF193 200 nM) above 45.8 µM.
`CCCCCCCCCCCCCCCC(=O)OC[C@@H](NC(=O)C(Cl)Cl)[C@H](O)c1ccc([N+](=O)[O-])cc1` [Chloramphenicol palmitate]: the IC50 cell viability runs as follows: (ICRF193 0 nM) above 45.8 µM; (ICRF193 200 nM) above 45.8 µM.
On to `COc1cc2/c(=N/c3ccc(Br)cc3F)nc[nH]c2cc1OCC1CCN(C)CC1` [Vandetanib], for which the IC50 cell viability runs as follows: (ICRF193 0 nM) above 45.8 µM; (ICRF193 200 nM) above 45.8 µM.
Regarding `CC(=O)OCC(=O)[C@@]1(O)CC[C@H]2[C@@H]3CCC4=CC(=O)C=C[C@]4(C)[C@@]3(F)[C@@H](O)C[C@@]21C` [Isoflupredone acetate], the IC50 cell viability is above 45.8 µM (ICRF193 0 nM) and above 45.8 µM (ICRF193 200 nM).
Regarding `S=C1SCN(Cc2ccccc2)CN1Cc1ccccc1` [Sulbentine], the IC50 cell viability is above 45.8 µM (ICRF193 0 nM) and above 45.8 µM (ICRF193 200 nM).
Regarding `CN1C(C(=O)Nc2ccccn2)=C(O)c2sc(Cl)cc2S1(=O)=O` [Lornoxicam], the IC50 cell viability was above 45.8 µM (ICRF193 0 nM) and above 45.8 µM (ICRF193 200 nM).
In the case of `O=C1[C@H](CC[C@H](O)c2ccc(F)cc2)[C@@H](c2ccc(O)cc2)N1c1ccc(F)cc1` [Ezetimibe], the IC50 cell viability reads like this: (ICRF193 0 nM) above 45.8 µM; (ICRF193 200 nM) above 45.8 µM.
On to `C[N+]1(CCF)[C@@H]2CC[C@H]1C[C@@H](OC(=O)C(O)(c1ccccc1)c1ccccc1)C2` (some centres undefined) [Flutropium bromide], for which the IC50 cell viability is, setting by setting: (ICRF193 0 nM) above 45.8 µM; (ICRF193 200 nM) above 45.8 µM.
With `Cc1c(Nc2ncccc2C(=O)O)cccc1C(F)(F)F` [Flunixin meglumine], the IC50 cell viability is above 45.8 µM (ICRF193 0 nM) and above 45.8 µM (ICRF193 200 nM).
For `O=C1c2ccccc2C(=O)C1c1ccccc1` [Phenindione], the IC50 cell viability was above 45.8 µM (ICRF193 0 nM) and above 45.8 µM (ICRF193 200 nM).
